Data: patent publication US12115182B2, “Adenosine A2A agonists for the treatment of cytokine storm syndrome” (priority 2021, dated 2024)
Entries after “also recorded” stand apart in the source; their conditions may differ.

Columns and labels:
[1] = system: SARS-CoV-2 strain B.1.351; type: in vivo, Golden Syrian hamster
[2] = Plasma levels of regadenoson in lung transplant recipients (LC-MS/MS); type: in vivo, human
Experimental: The peripheral blood samples for regadenoson measurement were collected at the following timepoints: 1) Prior to 1st lung reperfusion; 2) 1 hour post 1st lung perfusion; 3) 6 hours post infusion start; 4) 12 hours post infusion start; 5) 24 hours post infusion start. The blood samples were centrifuged, and the plasma samples were collected and stored at −80° C. The levels of regadenoson were determined via liquid chromatography-mass spectrometry with an improved d protocol based on our previous publication (LAU et al., J Heart Lung Transplant, (2020), 39:563-570) at The Mass Spectrometry Center at the School of Pharmacy, University of Maryland, Baltimore (detailed in supplemental methods).
Chemicals and Reagents. Regadenoson (purity 99.83%) was purchased from Selleckchem (Houston, TX, USA) and Regadenoson-d3 ((purity 99.68%) used as internal standard (IS) was obtained from Toronto Research Chemicals, (North York, ON, CT). Optima LC/MS grade water (H2O), methanol, and formic acid (FA) were purchased from Fisher Scientific (Pittsburgh, PA, USA).
Calibration Standards. 1 mg/ml stock solutions of Regadenoson and Regadenoson-d3 were prepared in Dimethyl sulfoxide (DMSO) and further working solutions to spike in plasma were prepared in methanol and water (70:30, v/v). Calibration standards (STD) in plasma ranged from 0.05 ng/ml to 50 ng/ml (8 points: 0.05, 0.1, 1, 5, 20, 30, 40, and 50 ng/ml). Quality control (QC) samples at 3 concentration levels (0.15 ng/ml, LQC; 25 ng/ml, MQC; and 45 ng/ml, HQC) were also prepared in plasma. Internal standard solution (Regadenoson-d3; 250 ng/ml) was prepared in methanol and water (70:30, v/v).
Sample Preparation. 50 μL of plasma sample (STD/QC/test sample) was added into a 2 ml centrifuge tube containing 20 μL of IS solution (250 ng/ml) and mixed well. Next, 500 μL of acetonitrile was added, shaken for 3 min at 2100 rpm, and centrifuged for 10 min at 15000 rpm. 400 μL of supernatant was transferred to glass tube and dried under a steady stream of nitrogen at 35° C. The sample was re-suspended in 100 μL of 0.1% formic acid in H2O: 0.1% formic acid in methanol (1:1 v/v) and injected (3 μl) into LC-MS/MS system.
Liquid Chromatography Tandem Mass Spectrometry (LC-MS/MS). LC-MS/MS analysis was performed on a TSO Altis Triple Stage Quadrupole Mass Spectrometer coupled to an Ultimate 3000 RS Liquid Chromatogram system (Thermo Scientific, San Jose, CA). The LC separation was performed on a BEH C18 column (2.1×50 mm, 1.7 μm) (Waters Corporations, Milford, MA) operated at 30° C. Mobile phase solvent A and B consisted of 0.1% FA in H2O and 0.1% FA in methanol, respectively. The gradient program started with 35% B; followed by a linear gradient to 50% Bin 0.7 min; maintained 50% B until 1.5 min; followed by a linear gradient back to 35% B in 2 min and maintained until 3 min. The flow rate was set at 0.22 ml/min. The retention time of Regadenoson and the IS was 1.09 min, and the total run time was 3 min.
Detection was performed in the positive-ion mode using electrospray ionization (ESI). Source parameters were as follows: spray voltage, 3500; Ion transfer tube temperature, 350; vaporizer temperature, 300; sheath gas pressure, 50; auxiliary gas pressure, 10; and sweet gas, 1. The compound parameters: collision energy (CE), and RF lens were 35 and 77 V, respectively for Regadenoson and the IS. Selected reaction monitoring (SRM) was used for mass detection with the following transitions: Regadenoson (m/z 391.1-259.2; quant) and (m/z 391.1-228.1; qual), Regadenoson-d3 (m/z 394.0-262.2; quant) and (m/z 394.0-228.2; qual). Data collection and analysis was performed by Xcalibur V 2.1 (Thermo Scientific, San Jose, CA).
Analytical parameters: The linear range is 0.05-50 ng/mL in human plasma. Samples that exceeded the upper limit of quantification were diluted 2 or 4 fold and reinjected.

[3] = system: soluble receptor for advanced glycation end-products (sRAGE); assay: Plasma sRAGE in lung transplant recipients; type: in vivo, human
Experimental: Blood was drawn for cytokine/chemokine, damage associated molecular patterns (DAMPs) at the following different timepoints: 1) before infusion (baseline), 2) 15 minutes before reperfusion of the 1st lung, 3) 30 minutes after reperfusion of 1st lung, 4) 30 minutes after reperfusion of 2nd lung, and 5) 6 hours after reperfusion of 1st lung.
The cytokines/chemokines, HMGB1 and sRAGE were determined at The University of Virginia Flow Cytometry Core (RRID: SCR 017829) as previously described (LAU et al., J Heart Lung Transplant, (2020), 39:563-570). The customized 11-plex cytokine panel detects IL-1, IL-2, IL-6, IL-7, IL-8, IL-10, IL-12P40, IL-12P70, IL-17, TNFa, and IFN-γ (Millipore Sigma, Burlington, MA).
We designed this trial mainly as a Phase I safety and feasibility study that would allow an optimal infusional dose to be determined based on dose-limiting toxicities identified in lung transplant recipients. We also evaluated the potential efficacy by clinical outcomes and the lab evaluation of various cytokines/chemokines, DAMPs and enzymes. […] HMGB1 and sRAGE levels were measured using a customized human Cytokine/Chemokine multiplex immunoassay (Millipore Sigma, Burlington, MA) at The University of Virginia Flow Cytometry Core (RRID: SCR_01 7829) as previously described (LAU et al., J Heart Lung Transplant, (2020), 39:563-570).

[4] = PI day 7, compared to control group

Which “albumin leakage into BAL” value [1, 4] does the source give for `CNC(=O)c1cnn(-c2nc(N)c3ncn([C@@H]4O[C@H](CO)[C@@H](O)[C@H]4O)c3n2)c1` [Regadenoson] here?
The value was “slight increase; also recorded: did not significantly”.

What about the “plasma IL13” value [1, 4] of the same compound?
The value was “slightly depressed; also recorded: did not significantly”.

What about the “time course of the disease or viral titer detected in throat swabs” value ([1]; RT-qPCR) of the same compound?
The value was “did not significantly”.

What about the “plasma IL4” value ([1]; compared to control) of the same compound?
The value was “depressed; also recorded: did significantly”.

And the “decrease in weight gain” value ([1]; daily weights, vs control group)?
Its value is “did not significantly”.

And the “histologic distribution or severity of lung pathology” value ([1]; day 7)?
The value was “did not significantly”.

What about the “plasma Transforming Growth Factor beta (TGFb)” value ([1]; day 7, compared to control) of the same compound?
Its value is “decreased; also recorded: did significantly”.

And the “spread of virus to olfactory bulb (brain)” value ([1]; day 7, compared to control)?
The value was “decreased; also recorded: did significantly”.

And the “respiratory physiology parameters (EF50, Rpef, Penh)” value ([1]; whole body plethysmography, PI day 7)?
The value was “did not significantly”.

And the “median peak plasma levels of regadenoson” value ([2]; 1.44 ug/kg/hour for 12 hours, preliminary result before dose alteration)?
The value was 1.68 ng/mL.

And the “levels of regadenoson in blood” value ([2]; after 24 hours post regadenoson infusion)?
Its value is “minimal”.

And the “time of peak drug level post infusion start” value ([2]; high dose group, 2.88 ug/kg/hr for 12 hours)?
Its value is 12 h.

And the “median peak plasma levels of regadenoson” value ([2]; high dose, 2.88 ug/kg/hr)?
The value was 14.34 ng/mL.

What about the “time of peak drug level post infusion start” value ([2]; low dose group, 1.44 ug/kg/hr for 12 hours) of the same compound?
The value was 6 h.

And the “median peak plasma levels of regadenoson” value ([2]; low dose, 1.44 ug/kg/hr)?
Its value is 1.30 ng/mL.

What about the “transplantation-induced plasma levels of sRAGE” value ([3]; 30 minutes post 1st lung reperfusion (low dose) and 30 minutes post 2nd lung reperfusion (low and high dose), P<0.0001 vs control) of the same compound?
The value was “significantly diminished; also recorded: significantly reduced”.

What about the “plasma sRAGE level” value ([3]; high dose, 30 minutes post the 1st lung reperfusion, P=0.0656) of the same compound?
Its value is “decreased in trend”.
